Drawing on PMC13249053, “Mechanism of auranofin toxicity: Inhibition of tetrahydrobiopterin metabolism” (Toxicology and applied pharmacology, 2025), this text covers IC50 for one molecule.

Structures are written as SMILES.

Assay [1] has as its target T1, SPR (Mus musculus, UniProt Q64105).
T1 construct: endogenous in cells; host or cells: RAW264.7
As to the kind of experiment: Cellular SPR activity: BH2 formation from sepiapterin in the presence of methotrexate, RAW264.7 cells. It is filed as cell-based. The conditions noted are these: RAW264.7 (mouse macrophage); with methotrexate. On the procedure:
(§1) The growth medium was then removed and the cells incubated with growth medium containing 100 μM sepiapterin. […] BH2 and BH4 were then analyzed on a Jasco high-performance liquid chromatography system (Easton, MD) fitted with a Maxsil-10 C18 column (250 × 4 mm; Phenomenex, Torrance, CA). […] Cell viability following drug treatments was greater than 95 %.

The target in assay [2] is T2, sepiapterin reductase (SPR) (Homo sapiens, UniProt P35270).
T2 construct: endogenous in cells; host or cells: HaCaT, Jurkat, BeWo, SKNMC, CX-1
T2 sequence (P35270 whole entry): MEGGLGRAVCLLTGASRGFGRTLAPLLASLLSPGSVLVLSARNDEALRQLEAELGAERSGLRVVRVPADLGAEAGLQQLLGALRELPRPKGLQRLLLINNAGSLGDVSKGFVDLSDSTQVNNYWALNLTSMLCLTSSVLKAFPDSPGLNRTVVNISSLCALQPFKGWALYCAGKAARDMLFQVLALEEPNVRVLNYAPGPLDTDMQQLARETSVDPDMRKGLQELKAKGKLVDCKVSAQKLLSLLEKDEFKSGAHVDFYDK
As to the kind of experiment: SPR enzyme activity in HaCaT cell lysates (BH2 formation from sepiapterin, HPLC). To be noted: BH2 formation from sepiapterin by HPLC, read-out: IC50, inhibition of SPR in HaCaT cell lysates. It is filed as biochemical. On the procedure: as §1
Fig. 4. Effects of auranofin on sepiapterin reductase (SPR) enzyme activity in HaCaT lysates. Lysates were assayed for SPR enzyme activity in control reaction mixes or reaction mixes containing increasing concentrations of auranofin (left panel). SPR activity was determined by decreases in BH2 formation from sepiapterin as measured by HPLC (right panel).

Assay [3] concerns the target SPR (Homo sapiens, UniProt P35270). The assay can be described thus: BH2 and BH4 production from sepiapterin in intact HaCaT cells (HPLC). Type of assay: cell-based. Set-up: endogenous in cells; host or cells: HaCaT, Jurkat, BeWo, SKNMC, CX-1. The conditions noted are these: auranofin 2 h, then 100 μM sepiapterin 3 h, read-out: IC50, inhibition of SPR (BH2+BH4 formation) in intact HaCaT cells. On the procedure: as §1
Fig. 3. Effects of auranofin on BH2 and BH4 production in intact HaCaT cells treated with sepiapterin. HaCaT cells (~1 × 10^6 cells/well in 6 well culture plates) were incubated with control medium or medium containing increasing concentrations of auranofin for 2 h followed by 100 μM sepiapterin. After an additional 3 h, BH2 and BH4 were extracted from the cells and analyzed by HPLC with fluorescence detection. Left panel: Chromatograms showing BH2 and BH4 content of control cells and cells treated with Auranofin.

Chain of SPR (Homo sapiens, UniProt P35270) (P35270 whole entry): as above
T1 sequence (Q64105 whole entry): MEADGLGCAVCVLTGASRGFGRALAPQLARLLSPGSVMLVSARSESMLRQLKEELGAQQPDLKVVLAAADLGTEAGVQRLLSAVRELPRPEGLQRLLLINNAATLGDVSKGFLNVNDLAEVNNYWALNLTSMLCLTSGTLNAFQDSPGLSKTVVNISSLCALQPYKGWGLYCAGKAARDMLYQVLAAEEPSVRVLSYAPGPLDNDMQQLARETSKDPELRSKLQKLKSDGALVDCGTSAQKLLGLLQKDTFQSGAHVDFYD

For the molecule `CC[PH](CC)(CC)[Au][S][C@@H]1O[C@H](COC(C)=O)[C@@H](OC(C)=O)[C@H](OC(C)=O)[C@H]1OC(C)=O` [auranofin, 2,3,4,6-tetra-O-acetyl-1-thio-β-D-glucopyranosato-S-triethyl phosphine gold], the IC50 at SPR [1] was found to be 21.3 ± 1.58 µM; in assay [2] it was 1.8 µM; on SPR [3], 12.8 µM.
